Results from US9377472B2, “Biological complex specific for Alzheimer's disease detection in vitro and use thereof” (Amoneta Diagnostics, priority 2012, dated 2016).

Columns and labels:
PC12 cells [1] = test: Calcium imaging (Fura-2) of differentiated PC12 cells after acute and/or chronic Aβ peptide application; assay type: cell-based, rat; settings: preincubated overnight at low concentration (10 nM), then acute 1 μM Aβ1-42
Procedure: PC12 rat pheochromocytoma cells were cultured in RPMI 1640 medium (InVitrogen) supplemented with 5% heat-inactivated horse serum, 10% foetal bovine serum (Dominique Dutcher) and antibiotics (penicillin 100 U/ml, streptomycin 100 U/ml, Sigma) at 37° C. in 5% CO2. PC12 cells were reseeded once a week. Before use, cells were platted in 35 mm glass-bottom culture dishes coated with type I collagen and Poly-L-ornithine; NGF (50 μg/1, Sigma) was added in the culture medium to induce their neuronal differentiation. Cells were used after 5 days in vitro, when they express a complete neuronal phenotype (neurite like extensions, voltage dependent ionic channels, neurotransmitters receptors and neurotransmitter secretion capacities).
PC12 cells platted on glass-bottom culture dishes were loaded with Fura-2 AM (1 μM, InVitrogen) and pluronic acid (InVitrogen) in a Hepes buffer for 20 min at 37° C. […] Fluorescence was excited by a xenon lamp equipped with two alternating filters allowing a fluorescence excitation at 350 nm for Ca^2+-bound Fura-2 and at 380 nm for Ca^2+-unbound Fura-2. Image pairs were recorded during 20 minutes every 5 seconds using an EM-CCD camera (Hamamatsu Photonics). Emitted fluorescence intensities (510 nm) were measured from regions of interest centered on individual cells. Normalized ratios were calculated. […]

PC12 cells [2] = test: Immunocytochemistry of Aβ oligomers bound to PC12 cells (A11 antibody); assay type: cell-based, rat
Procedure: In an attempt to characterise the tertiary form of the peptide bound to the cells and responsible for the priming effect that was observed immunocytochemical experiments were performed: PC12 cells were plated on poly-L-ornithine coated coverslips and maintained for 5 days in culture media supplemented with NGF to induce neuronal differentiation at 37° C. According to experimental conditions, PC 12 cells have undergone a chronic treatment and/or an acute treatment (see Example 1). Cells were subsequently rinsed to eliminate unbound Aβ and fixed with 4% paraformaldehyde in phosphate buffered saline (PBS) for 10 minutes. PC12 cells were then incubated in a blocking solution (3% Bovine Serum Albumin in PBS) for 1 hour at room temperature. A rabbit polyclonal antibody A11 (Millipore) directed against Aβ oligomers diluted 1:1500 in blocking solution was applied to the cells overnight at 4° C. Cells were washed three times for 10 minutes with the blocking solution and incubated with the appropriate secondary Dylight 549-conjugated antibody goat […], (Jackson Immunoresearch, diluted 1:2000) for 2 hours at room temperature, washed 3×10 minutes in PBS and mounted in Mowiol.
Panel G of FIG. 2(g) represents the quantification of the fluorescence intensity in the different experimental conditions in 2(a) to 2(f).

Substance: Aβ1-42: synthetic beta-amyloid peptide 1-42 (Bachem or Anaspec), SEQ ID NO: 4
- priming: [Ca^2+]i response to subsequent acute 1 μM Aβ1-42 after overnight preincubation with the peptide (PC12 cells [1]): amplified
- fluorescent signal of bound Aβ oligomers after acute application only (PC12 cells [2]; acute application of 1 μM, no preincubation): No significant fluorescent signal
- fluorescent signal of bound Aβ oligomers, chronic preincubation associated to acute stimulation (PC12 cells [2]; chronic preincubation plus acute stimulation): a clear signal was observed
- fluorescent signal of bound Aβ oligomers after preincubation only (PC12 cells [2]; preincubation with 10 or 50 nM, no acute application): No significant fluorescent signal
